Test results as given in patent US9403801B2 (Calitor Sciences, LLC, priority 2014, dated 2016).

Key:
JAK1 (h) = JAK1 (h) (Homo sapiens (Human), UniProt P23458); test: JAK1 kinase assay (33P-ATP filter binding, Millipore); format: biochemical
Procedure, shortened: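 Radiometric assay of γ-33P-ATP incorporation into plate-immobilised MBP; kinase buffer pH 7.6 with 10 mM MgCl2, 10 μM unlabelled ATP typical, enzyme 10 or 20 nM final, 1% DMSO. Reactions ran 1 h at room temperature before scintillation counting. IC50 from 10-point half-log dilution curve, duplicates.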

JAK2 (h) = JAK2 (h) (Homo sapiens (Human), UniProt O60674); test: JAK2 kinase assay (33P-ATP filter binding, Millipore); format: biochemical
Chain of JAK2 (h) (O60674 whole entry): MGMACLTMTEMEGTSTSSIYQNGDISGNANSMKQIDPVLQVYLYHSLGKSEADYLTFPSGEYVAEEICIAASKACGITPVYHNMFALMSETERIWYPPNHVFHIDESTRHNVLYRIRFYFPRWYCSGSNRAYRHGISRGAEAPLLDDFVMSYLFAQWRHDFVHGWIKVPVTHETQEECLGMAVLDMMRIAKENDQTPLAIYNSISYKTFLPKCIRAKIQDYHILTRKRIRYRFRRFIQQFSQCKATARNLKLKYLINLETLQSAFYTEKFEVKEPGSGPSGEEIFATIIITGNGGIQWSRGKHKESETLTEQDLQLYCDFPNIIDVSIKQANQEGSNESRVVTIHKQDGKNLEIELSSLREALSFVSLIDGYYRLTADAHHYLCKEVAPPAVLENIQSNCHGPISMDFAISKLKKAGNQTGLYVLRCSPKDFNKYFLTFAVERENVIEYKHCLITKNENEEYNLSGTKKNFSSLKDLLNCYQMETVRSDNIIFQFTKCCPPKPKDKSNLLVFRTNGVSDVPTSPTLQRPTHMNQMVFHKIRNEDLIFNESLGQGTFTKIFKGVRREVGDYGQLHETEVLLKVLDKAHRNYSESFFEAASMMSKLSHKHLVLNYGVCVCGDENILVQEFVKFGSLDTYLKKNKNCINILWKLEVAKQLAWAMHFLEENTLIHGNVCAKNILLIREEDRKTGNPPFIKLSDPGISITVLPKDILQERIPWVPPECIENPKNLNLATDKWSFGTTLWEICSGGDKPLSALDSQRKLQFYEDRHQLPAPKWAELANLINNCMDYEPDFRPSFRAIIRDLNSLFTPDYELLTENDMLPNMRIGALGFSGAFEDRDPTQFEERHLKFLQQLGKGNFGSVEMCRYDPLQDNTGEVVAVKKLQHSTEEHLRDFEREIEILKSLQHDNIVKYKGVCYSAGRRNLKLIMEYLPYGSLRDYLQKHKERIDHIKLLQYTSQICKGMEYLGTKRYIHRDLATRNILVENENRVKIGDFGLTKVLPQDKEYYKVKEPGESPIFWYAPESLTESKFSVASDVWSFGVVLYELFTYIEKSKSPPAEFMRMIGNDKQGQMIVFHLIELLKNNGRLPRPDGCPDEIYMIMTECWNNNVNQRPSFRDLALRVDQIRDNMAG
Description: Kinase assays can be performed by measurement of incorporation of γ-^33P ATP into immobilized myelin basic protein (MBP). High binding white 384 well plates (Greiner) are coated with MBP (Sigma #M−1891) by incubation of 60 μL/well of 20 μg/mL MBP in Tris-buffered saline (TBS; 50 mM Tris pH 8.0, 138 mM NaCl, 2.7 mM KCl) for 24 h at 4° C. Plates are washed 3× with 100 μL TBS. Kinase reactions are carried out in a total volume of 34 μL in kinase buffer (5 mM Hepes pH 7.6, 15 mM NaCl, 0.01% bovine gamma globulin (Sigma #I-5506), 10 mM MgCl2, 1 mM DTT, 0.02% TritonX-100). Compound dilutions are performed in DMSO and added to assay wells to a final DMSO concentration of 1%. Each data point is measured in duplicate, and at least two duplicate assays are performed for each individual compound determination. Enzyme is added to final concentrations of 10 nM or 20 nM, for example. A mixture of unlabeled ATP and γ-^33P ATP is added to start the reaction (2×10^6 cpm of γ-^33P ATP per well (3000 Ci/mmole) and 10 μM unlabeled ATP, typically. The reactions are carried out for 1 h at room temperature with shaking. Plates are washed 7× with TBS, followed by the addition of 50 μL/well scintillation fluid (Wallac). Plates are read using a Wallac Trilux counter. This is only one format of such assays; various other formats are possible, as known to one skilled in the art.
The above assay procedure can be used to determine the IC50 for inhibition and/or the inhibition constant, Ki. The IC50 is defined as the concentration of compound required to reduce the enzyme activity by 50% under the condition of the assay. The IC50 value is estimated by preparing a 10 point curve using a 1/2 log dilution series (for example, a typical curve may be prepared using the following compound concentrations: 3 μM, 1 μM, 0.3 μM, 0.1 μM, 0.03 μM, 0.01 μM, 0.003 μM, 0.001 μM, 0.0003 μM and 0 μM).
The kinase assays described herein were performed at Millipore UK Ltd, Dundee Technology Park, Dundee DD2 1SW, UK.

[1] = Pharmacokinetics after intravenous and oral administration in rats; format: in vivo; details: for Clearance (CL) after iv dosing / AUC(0-t) / half-life / Vd: dose 1 mg/kg (Ex. 27: 0.72 mg/kg), iv dosing; for F: oral bioavailability; for AUC(0-t) / half-life / Vd: rat, plasma; for Vd: read-out: Vss
Procedure, shortened: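 Rats were dosed 1 or 2 mg/kg IV or 5 or 10 mg/kg orally, as water solution, HPMC/Tween 80, DMSO/saline, MC suspension or capsule. Plasma was sampled from 0.083 or 0.25 h up to 24 h and quantified by LC/MS/MS in MRM mode with ESI.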

[2] = Compound stability in human liver microsomes; format: in vitro ADME; details: for half-life at 5 μM / T1/2: compound 5 μM, NADPH 1.0 mM, 37° C.
Procedure, shortened: (§1)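 LC/MS/MS read-out of parent remaining, as % of t=0, after 0, 5, 10, 15, 30 and 60 min at 37° C. Mix: microsomes 0.5 mg/mL, test compound 5 μM, NADPH 1.0 mM, phosphate pH 7.4. Denatured microsomes served as negative control. In vivo CLint extrapolated.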

[3] = Compound stability in rat liver microsomes; format: in vitro ADME
Procedure, shortened: as §1

[4] = human, liver microsomes, pH 7.4, Human liver microsomes 0.5 mg protein/mL
[5] = human, liver microsomes, pH 7.4, Human liver microsomes, in vivo CLint extrapolated
[6] = rat, liver microsomes, pH 7.4, Rat liver microsomes 0.5 mg protein/mL, compound 5 μM, NADPH 1.0 mM, 37° C.
[7] = rat, liver microsomes, pH 7.4, Rat liver microsomes, in vivo CLint extrapolated
[8] = Human liver microsomes 0.5 mg protein/mL
[9] = pH 7.4, Rat liver microsomes 0.5 mg protein/mL, compound 5 μM, NADPH 1.0 mM, 37° C.
[10] = pH 7.4, Rat liver microsomes, in vivo CLint extrapolated
[11] = pH 7.4, Human liver microsomes 0.5 mg protein/mL
[12] = pH 7.4, Human liver microsomes, in vivo CLint extrapolated

Chain of JAK1 (h) (P23458 whole entry): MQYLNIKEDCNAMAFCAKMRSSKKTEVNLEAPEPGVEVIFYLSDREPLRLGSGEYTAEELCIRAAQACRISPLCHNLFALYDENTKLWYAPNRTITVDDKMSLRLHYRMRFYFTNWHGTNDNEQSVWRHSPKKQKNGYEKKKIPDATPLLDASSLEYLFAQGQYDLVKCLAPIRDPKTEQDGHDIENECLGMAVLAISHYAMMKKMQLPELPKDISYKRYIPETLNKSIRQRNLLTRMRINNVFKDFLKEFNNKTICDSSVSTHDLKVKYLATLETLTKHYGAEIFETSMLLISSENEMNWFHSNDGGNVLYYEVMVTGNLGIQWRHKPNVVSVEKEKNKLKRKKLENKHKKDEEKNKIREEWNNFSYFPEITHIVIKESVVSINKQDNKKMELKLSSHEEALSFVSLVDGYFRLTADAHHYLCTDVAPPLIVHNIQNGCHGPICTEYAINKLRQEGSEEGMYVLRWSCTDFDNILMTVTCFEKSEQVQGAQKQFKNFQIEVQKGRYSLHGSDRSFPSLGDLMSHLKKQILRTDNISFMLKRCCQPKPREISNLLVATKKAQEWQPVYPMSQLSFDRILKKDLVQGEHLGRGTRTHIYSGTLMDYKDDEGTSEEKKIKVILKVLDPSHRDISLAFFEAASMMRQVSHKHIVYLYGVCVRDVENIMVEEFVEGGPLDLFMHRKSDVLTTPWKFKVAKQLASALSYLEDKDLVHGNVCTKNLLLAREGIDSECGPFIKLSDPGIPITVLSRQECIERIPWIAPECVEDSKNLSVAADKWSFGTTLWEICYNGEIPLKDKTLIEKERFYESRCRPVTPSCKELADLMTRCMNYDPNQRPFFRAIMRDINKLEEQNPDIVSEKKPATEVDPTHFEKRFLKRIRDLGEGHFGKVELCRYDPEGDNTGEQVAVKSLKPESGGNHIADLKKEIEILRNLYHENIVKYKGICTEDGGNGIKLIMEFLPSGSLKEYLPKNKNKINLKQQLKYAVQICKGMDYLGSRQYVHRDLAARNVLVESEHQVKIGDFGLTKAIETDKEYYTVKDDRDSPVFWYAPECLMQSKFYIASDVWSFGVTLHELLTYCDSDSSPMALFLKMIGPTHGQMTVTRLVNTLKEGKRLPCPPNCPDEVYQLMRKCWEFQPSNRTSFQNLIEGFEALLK

| SMILES | IC50 (JAK1 (h)) [nM] | IC50 (JAK2 (h)) [nM] | Clearance (CL) after iv dosing [1] [L/h/kg] | F [1] [%] | AUC(0-t) [1] [ng·h/mL] | half-life [1] [min] | Vd [1] [L/kg] | half-life at 5 μM [2, 4] [min] | CLint scaled at 5 μM [2, 5] [mL/min/kg] | half-life at 5 μM [3, 6] [min] | CLint scaled at 5 μM [3, 7] [mL/min/kg] | T1/2 [2, 8] | CLint ([2]; Human liver microsomes, in vivo CLint extrapolated) [mL/min/kg] | T1/2 ([3]; Rat liver microsomes 0.5 mg protein/mL, compound 5 μM, NADPH 1.0 mM, 37° C.) [min] | CLint ([3]; Rat liver microsomes, in vivo CLint extrapolated) [mL/min/kg] | half-life at 5 μM [3, 9] [min] | CLint scaled at 5 μM [3, 10] [mL/min/kg] | half-life at 5 μM [2, 11] [min] | CLint scaled at 5 μM [2, 12] [mL/min/kg] |
| --- | --- | --- | --- | --- | --- | --- | --- | --- | --- | --- | --- | --- | --- | --- | --- | --- | --- | --- | --- |
| CN(c1nc(Nc2cnn(C)c2)ncc1Cl)C1CCC2(CC1)CCN(C(=O)CC#N)C2 (single isomer, unassigned) [Ex. 4A, 3-(8-((5-chloro-2-((1-methyl-1H-pyrazol-4-yl)amino)pyrimidin-4-yl)(methyl)amino)-2-azaspiro[4.5]decan-2-yl)-3-oxopropanenitrile] | 20 | 83 | 2.93 | 21.81 | 345 | 51.6 | 1.38 | 37.3 | 46.6 | 12.4 | 200 | – | – | – | – | – | – | – | – |
| Cn1cc(Nc2ncc(Cl)c(NC3CCC4(CC3)CCN(C(=O)CC#N)C4)n2)cn1 (single isomer, unassigned) [Ex. 14B, 3-(8-((5-chloro-2-((1-methyl-1H-pyrazol-4-yl)amino)pyrimidin-4-yl)amino)-2-azaspiro[4.5]decan-2-yl)-3-oxopropanenitrile] | 2 | 15 | 5.21 | 12.7 | 193 | 29.4 | 2.41 | – | – | – | – | 171.8 min | 10.12 | 71.63 | 34.67 | – | – | – | – |
| Cn1cc(Nc2ncc(Cl)c(NC3CC4CNCC4C3)n2)cn1 (centres unmarked) [Ex. 11, 5-chloro-N^2-(1-methyl-1H-pyrazol-4-yl)-N^4-(octahydrocyclopenta[c]pyrrol-5-yl)pyrimidine-2,4-diamine] | 27 | 176 | 6.30 | 18.13 | 146 | 151 | 18.6 | – | – | – | – | ∞ | – | – | – | 17.7 | 140 | – | – |
| Cn1cc(Nc2ncc(Cl)c(NC3CCC4CN(C(=O)CC#N)CC4C3)n2)cn1 (centres unmarked) [Ex. 22, 3-(5-((5-chloro-2-((1-methyl-1H-pyrazol-4-yl)amino)pyrimidin-4-yl)amino)hexahydro-1H-isoindol-2(3H)-yl)-3-oxopropanenitrile] | 2 | 6 | 5.69 | 22.6 | 176 | 25.8 | 2.02 | – | – | – | – | – | – | – | – | 12.2 | 204 | 158 | 11 |
| Cn1cc(Nc2ncc(Cl)c(NC3CCC4(CC3)CCN(c3ccc(C#N)cn3)CC4)n2)cn1 [Ex. 27, 6-(9-((5-chloro-2-((1-methyl-1H-pyrazol-4-yl)amino)pyrimidin-4-yl)amino)-3-azaspiro[5.5]undecan-3-yl)nicotinonitrile] | 4 | 23 | 1.67 | 15.0 | 452 | 46.2 | 1.74 | 21.8 | 79.7 | 9.2 | 270 | – | – | – | – | – | – | – | – |
| Cn1cc(Nc2ncc(Cl)c(NC3CCC4(CC3)CCN(S(C)(=O)=O)CC4)n2)cn1 [Ex. 29, 5-chloro-N^2-(1-methyl-1H-pyrazol-4-yl)-N^4-(3-(methylsulfonyl)-3-azaspiro[5.5]undecan-9-yl)pyrimidine-2,4-diamine] | 2 | 5 | 2.74 | 19.1 | 382 | 49.2 | 2.05 | 83.8 | 20.8 | 40.3 | 61.6 | – | – | – | – | – | – | – | – |
| Cn1cc(Nc2ncc(Cl)c(NC3CCC4(CC3)CCN(C(=O)C(F)(F)F)CC4)n2)cn1 [Ex. 30, 1-(9-((5-chloro-2-((1-methyl-1H-pyrazol-4-yl)amino)pyrimidin-4-yl)amino)-3-azaspiro[5.5]undecan-3-yl)-2,2,2-trifluoroethanone] | 0.9 | 5 | 2.74 | 26.1 | 370 | 69 | 4.77 | 38 | 45.7 | 24.2 | 103 | – | – | – | – | – | – | – | – |
| CC(=O)N1CC2CC(Nc3nc(Nc4cnn(C)c4)ncc3Cl)CC2C1 (centres unmarked) [Ex. 32, 1-(5-((5-chloro-2-((1-methyl-1H-pyrazol-4-yl)amino)pyrimidin-4-yl)amino)hexahydrocyclopenta[c]pyrrol-2(1H)-yl)ethanone] | 3 | 37 | 3.77 | 41.3 | 264 | 35.4 | 1.65 | – | – | – | – | – | – | – | – | 27.2 | 91.4 | 202 | 8.6 |
| Cn1cc(Nc2ncc(Cl)c(NC3CC4CN(C(=O)C(F)(F)F)CC4C3)n2)cn1 (centres unmarked) [Ex. 34, 1-(5-((5-chloro-2-((1-methyl-1H-pyrazol-4-yl)amino)pyrimidin-4-yl)amino)hexahydrocyclopenta[c]pyrrol-2(1H)-yl)-2,2,2-trifluoroethanone] | 2 | 17 | – | – | – | – | – | – | – | – | – | – | – | – | – | 2.31 | 1080 | 19 | 91.6 |
| Cn1cc(Nc2ncc(Cl)c(NC3CC4CN(CC(F)(F)F)CC4C3)n2)cn1 (centres unmarked) [Ex. 35, 5-chloro-N^2-(1-methyl-1H-pyrazol-4-yl)-N^4-(2-(2,2,2-trifluoroethyl)octahydrocyclopenta[c]pyrrol-5-yl)pyrimidine-2,4-diamine] | 2 | 8 | – | – | – | – | – | – | – | – | – | – | – | – | – | 2.72 | 913 | 6.65 | 261 |
| Cc1cc(Nc2ncc(Cl)c(NC3CCC4(CC3)CCN(C(=O)CC#N)CC4)n2)nn1C [Ex. 37, 3-(9-((5-chloro-2-((1,5-dimethyl-1H-pyrazol-3-yl)amino)pyrimidin-4-yl)amino)-3-azaspiro[5.5]undecan-3-yl)-3-oxopropanenitrile] | 5 | 11 | 2.66 | 31.3 | 381 | 71.4 | 2.97 | 56.2 | 30.9 | 68.9 | 36.1 | – | – | – | – | – | – | – | – |
| Cn1cnc(Nc2ncc(Cl)c(NC3CCC4(CC3)CCN(C(=O)CC#N)CC4)n2)c1 [Ex. 42, 3-(9-((5-chloro-2-((1-methyl-1H-imidazol-4-yl)amino)pyrimidin-4-yl)amino)-3-azaspiro[5.5]undecan-3-yl)-3-oxopropanenitrile] | 3 | 12 | – | – | – | – | – | 48.9 | 35.6 | 31.5 | 78.8 | – | – | – | – | – | – | – | – |
